Results from ChEMBL document CHEMBL5321290, “Discovery of the Diphenyl 6-Oxo-1,6-dihydropyridazine-3-carboxylate/carboxamide Analogue J27 for the Treatment of Acute Lung Injury and Sepsis by Targeting JNK2 and Inhibiting the JNK2-NF-κB/MAPK Pathway” (J Med Chem, 2023).
Active and inactive are the calls of the source. No cut-off for these calls is given here.

Experiments:
[1] = Subacute toxicity in ICR mouse assessed as mortality at 500 to 100 mg/kg, IG measured for 10 days; assay type: organism-based; details: in vivo, po, 240 h, dose 500-100 mg/kg, time 10 day
[2] = tested on: THP-1; assay: Antiinflammatory activity against human THP-1 cells assessed as inhibition of LPS-stimulated IL6 mRNA expression pretreated for 2 hrs followed by stimulated with LPS by RT-qPCR analysis; assay type: functional, cell-based; details: dose 2.5-10 µM
[3] = tested on: THP-1; assay: Antiinflammatory activity against human THP-1 cells assessed as inhibition of LPS-stimulated TNFalpha release measured after 30 mins by ELISA; assay type: functional; details: 0.5 h
[4] = AUC (0 to t) in Sprague-Dawley rat at 10 mg/kg, iv measured upto 24 hrs by UPLC-MS/MS analysis; assay type: ADME, organism-based; parameters: dose 10 mg/kg, time < 24 hrs, route iv; details: in vivo
[5] = tested on: Mus musculus; assay: Antiinflammatory activity against LPS-induced acute lung injury C57 mouse model assessed as decrease in LPS-induced IL-6 level in serum at 20 to 40 mg/kg, po thrice at 12 hrs interval followed 30 mins treated with LPS by ELISA; assay type: functional, organism-based; details: dose 20-40 mg/kg, time 36.5 hrs
[6] = Oral bioavailability n Sprague-Dawley rat at 10 mg/kg measured upto 24 hrs by UPLC-MS/MS analysis; assay type: ADME, organism-based; details: in vivo
[7] = tested on: J774.A1; assay: Antiinflammatory activity against mouse J774A.1 cells assessed as inhibition of LPS-stimulated TNFalpha release measured after 30 mins by ELISA; assay type: functional, cell-based; details: J774.A1, 0.5 h
[8] = tested on: Mus musculus; assay: Antiinflammatory activity against LPS-induced acute lung injury C57 mouse model assessed as decrease in LPS-induced total cell count in broncho alveolar lavage fluid at 20 mg/kg, po thrice at 12 hrs interval; assay type: functional, organism-based; details: Bronchoalveolar lavage
[9] = tested on: Mus musculus; assay: Antiinflammatory activity against LPS-induced acute lung injury C57 mouse model assessed as reduction in LPS-induced p-p65 level in lung tissue at 40 mg/kg, po thrice at 12 hrs interval followed 30 mins treated with LPS by Western blot analysis; assay type: functional, organism-based; details: time 36.5 hrs
[10] = tested on: Mus musculus; assay: Antiinflammatory activity against LPS-induced acute lung injury C57 mouse model assessed as decrease in LPS-induced TNFalpha level in serum at 20 to 40 mg/kg, po thrice at 12 hrs interval followed 30 mins treated with LPS by ELISA; assay type: functional, organism-based; details: dose 20-40 mg/kg, time 36.5 hrs
[11] = biological target: Mitogen-activated protein kinase 9 (Homo sapiens, UniProt P45984); assay: Binding affinity to JNK2 (unknown origin) assessed as dissociation constant by SPR analysis
[12] = Subacute toxicity in ICR mouse assessed as pathological change in liver at 500 to 100 mg/kg, IG measured for 10 days by hematoxylin and eosin dye based light microscopy; assay type: organism-based; details: in vivo, po, 240 h, dose 500-100 mg/kg, time 10 day
[13] = tested on: Mus musculus; assay: Antiinflammatory activity against LPS-induced septic shock mouse model assessed as improvement in LPS-induced weight loss at 20 mg/kg, po pretreated 1 hr before LPS administration measured upto 120 hrs; assay type: functional, organism-based; details: time <= 121.0 hrs
[14] = Cmax in Sprague-Dawley rat at 10 mg/kg, iv measured upto 24 hrs by UPLC-MS/MS analysis; assay type: ADME, organism-based; parameters: dose 10 mg/kg, time < 24 hrs, route iv; details: in vivo
[15] = tested on: J774.A1; assay: Antiinflammatory activity against mouse J774A.1 cells assessed as inhibition of LPS-stimulated IL6 release measured after 30 mins by ELISA; assay type: functional, cell-based; details: J774.A1, 0.5 h
[16] = tested on: Mus musculus; assay: Antiinflammatory activity against LPS-induced acute lung injury C57 mouse model assessed as decrease in LPS-induced lung wet to dry weight ratio at 20 mg/kg, po thrice at 12 hrs interval; assay type: functional, organism-based

Chain of Mitogen-activated protein kinase 9 (P45984 whole entry): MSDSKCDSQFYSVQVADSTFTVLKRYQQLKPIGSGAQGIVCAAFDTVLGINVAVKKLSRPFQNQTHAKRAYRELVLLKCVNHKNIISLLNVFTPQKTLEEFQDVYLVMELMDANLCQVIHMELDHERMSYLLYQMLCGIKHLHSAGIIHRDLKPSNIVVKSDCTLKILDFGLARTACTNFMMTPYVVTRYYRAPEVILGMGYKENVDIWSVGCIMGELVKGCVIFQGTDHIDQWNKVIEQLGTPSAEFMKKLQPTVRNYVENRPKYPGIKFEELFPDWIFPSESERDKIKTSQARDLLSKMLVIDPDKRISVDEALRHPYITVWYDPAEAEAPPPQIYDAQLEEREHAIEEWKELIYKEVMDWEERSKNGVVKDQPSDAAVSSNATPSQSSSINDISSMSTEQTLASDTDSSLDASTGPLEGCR

SMILES: COc1cc2nccc(Oc3ccc(NC(=O)c4nn(-c5ccc(C)cc5)c(=O)cc4C)cc3)c2cc1OC
- Activity [1]: Non-Toxic
- Activity [2]: Dose-Dependent Effect
- IC50 [3]: 1.76 µM
- AUCt [4]: 2995.673 ng·h/mL
- Activity [5]: Active
- F [6]: 30.74%
- IC50 [7]: 5.3 µM
- Activity [8]: inactive
- Activity [9]: Active
- Activity [10]: Active
- Kd [11]: 79.2 µM
- Activity [12]: Non-Toxic
- Activity [13]: Active
- Cmax [14]: 1460 ng/mL
- IC50 [15]: 7.11 µM
- Activity [16]: inactive
